In US20070254907A1, “COMPOSITIONS AND METHODS FOR CONTROLLING INFESTATION” (HATCHTECH PTY LTD, priority 2003, published 2007):
Where two headings read alike, the source gives them in different places.

How the values were obtained:
Plutella xylostella eggs = test: whole plant or invertebrate; type: in vivo
Experimental: The ovicidal efficacy of 2-acetyl-1-tetralone was also tested against Plutella eggs.

lice eggs = test: whole plant or invertebrate; type: in vivo; conditions: for inhibition at 10000 µM: Pediculus humanus, read-out: Ovicidal activity %; for Activity class 0 = inactive 1 = low 2 = med 3 = high: listed as of 10 mM
[1] = Plutella xylostella, read-out: Ovicidal activity %
[2] = Plutella xylostella, Plutella (P), 10 mM, read-out: Ovicidal activity %
[3] = Plutella (P), listed as of 10 mM
[4] = Table 14, 10 mM, dipped approximately 2 seconds, eggs on fine cloth

| Compound | inhibition at 10000 µM (Plutella xylostella eggs; [2]) [%] | Logit calc pLD50 (Plutella xylostella eggs; in vivo) | Pref pLD50 (Plutella xylostella eggs; in vivo) | further results |
| --- | --- | --- | --- | --- |
| N[C@@H]1CCCC[C@H]1O (relative stereo) [Trans-2-aminocyclohexanol] |  |  |  | inhibition at 10000 µM (Plutella xylostella eggs; [1]): 0% |
| Cc1cc(C)cc(C(=O)CC(=O)c2cc(C)cc(C)c2)c1 [1,3-Bis-(3,5-dimethyl-phenyl)-propane-1,3-dione] | 0 | 0.7 | <2 |  |
| COc1ccc(C(=O)CC(=O)c2ccc(OC)cc2)cc1 [1,3-Bis-(4-methoxy-phenyl)-propane-1,3-dione] | 0 | 0.7 | <2 |  |
| CC(C)(C)c1ccc(C(=O)CC(=O)c2ccc(C(C)(C)C)cc2)cc1 [1,3-Bis-(4-tert-butyl-phenyl)-propane-1,3-dione] | 0 | 0.7 | <2 |  |
| O=C(CC(=O)c1cccnc1)c1cccnc1 [1,3-dipyridin-3-yl-propane-1,3-dione] | 0 | 0.7 | <2 |  |
| O=C(CC(=O)c1ccc(Cl)cc1)c1ccccc1 [1-(4-Chloro-phenyl)-3-phenyl-propane-1,3-dione] |  |  |  | inhibition at 10000 µM (lice eggs; Lice (L), 10 mM): 0% |
| c1ccc(Nc2ccccn2)nc1 [2,2-dipyridylamine] |  |  |  | Ovicidal activity % (Plutella xylostella eggs; Plutella (P), 1 mM): 0.00%; Ovicidal activity % (Plutella xylostella eggs; Plutella (P), 10 mM): 100%; Activity class 0 = inactive 1 = low 2 = med 3 = high (Plutella xylostella eggs; Plutella (P), listed as of 1 mM): 0 (A pLD50 value less than 2 is considered inactive (Class 0)); Activity class 0 = inactive 1 = low 2 = med 3 = high (Plutella xylostella eggs; [3]): 1 (a pLD50 value between 2 and 3 is considered weakly active (Class 1)) |
| COC(=O)c1ccc(-c2ccc(C(=O)OC)cn2)nc1 [2,2′ Bipyridinyl-5,5′-dicarboxylic acid dimethyl ester] |  |  |  | Activity class 0 = inactive 1 = low 2 = med 3 = high (lice eggs; Lice (L)): 0 (A pLD50 value less than 2 is considered inactive (Class 0)); inhibition at 10000 µM (lice eggs; Lice (L), 10 mM): 0% |
| Cc1nc(-c2nc(C)c(C)[nH]2)[nH]c1C [2,2′-Bis(4,5-dimethylimidazole)] |  |  |  | Ovicidal activity % (lice eggs; Lice (L), 10 mM): 0.00%; Activity class 0 = inactive 1 = low 2 = med 3 = high (lice eggs; Lice (L)): 0 (A pLD50 value less than 2 is considered inactive (Class 0)) |
| c1ccc(-c2ccc3ccccc3n2)nc1 [2-(2-pyridinyl)quinoline] | 100 | 3.3 | >2 | effect on egg hatching of Plutella xylostella (words) (Plutella xylostella eggs; 10 mM): able to inhibit egg hatching; inhibition at 10000 µM (Plutella xylostella eggs; Plutella xylostella, Table 14, 10 mM, relative to control (100% ETOH), read-out: % Inhibition): 96%; Number hatched (Plutella xylostella eggs; [4]): 2; Number unhatched (Plutella xylostella eggs; [4]): 56 |
| CC(=O)C1CCCCC1=O (stereo not drawn) [2-Acetylcyclohexanone] | 0 | 0.7 | <2 |  |
| NCC(O)c1ccccc1 (stereo not drawn) [2-Amino-1-phenyl ethanol] |  |  |  | Ovicidal activity % (Plutella xylostella eggs; in vivo): 0.00% |
| Cc1ccccn1 [2-Picoline] |  |  |  | Activity class 0 = inactive 1 = low 2 = med 3 = high (lice eggs; Lice (L)): 0 (A pLD50 value less than 2 is considered inactive (Class 0)); inhibition at 10000 µM (lice eggs; Lice (L), 10 mM): 0% |
| CC(=O)NO [Acetohydroxamic acid] | 0 | 0.7 | <2 |  |
| O=C(NO)c1ccccc1 [Benzohydroxaminic acid] |  |  |  | Ovicidal activity % (Plutella xylostella eggs; Plutella (P), 10 mM): 0.00%; Activity class 0 = inactive 1 = low 2 = med 3 = high (Plutella xylostella eggs; [3]): 0 (A pLD50 value less than 2 is considered inactive (Class 0)) |
| CC(=O)CC(=O)c1ccccc1 [Benzoylacetone] | 90 |  |  | inhibition at 1000 µM (Plutella xylostella eggs; Plutella xylostella, Plutella (P), 1 mM, read-out: Ovicidal activity %): 0% |
| CCCC(N)CO [D-L-2-Amino-1-pentanol] |  | 0.7 | <2 | Ovicidal activity % (Plutella xylostella eggs; Plutella (P), 10 mM): 0.00%; Activity class 0 = inactive 1 = low 2 = med 3 = high (Plutella xylostella eggs; [3]): 0 (A pLD50 value less than 2 is considered inactive (Class 0)) |
| c1ccc(CNCc2ccccn2)nc1 [Di(2-picolyl) amine] |  |  |  | Activity class 0 = inactive 1 = low 2 = med 3 = high (lice eggs; Lice (L)): 0 (A pLD50 value less than 2 is considered inactive (Class 0)); inhibition at 10000 µM (lice eggs): 0% |
| O=C(CC(=O)c1ccccc1)c1ccccc1 [Dibenzoyl methane] |  |  |  | inhibition at 10000 µM (Plutella xylostella eggs; [1]): 90% |
| CCOC(=O)CNC(C)=O [Ethyl-acetaimidoacetate] |  |  |  | Ovicidal activity % (Plutella xylostella eggs; Plutella (P), 10 mM): 0.00%; Activity class 0 = inactive 1 = low 2 = med 3 = high (Plutella xylostella eggs; [3]): 0 (A pLD50 value less than 2 is considered inactive (Class 0)) |
| COC(=O)CN [Glycine methyl ester] | 0 | 0.7 | <2 |  |
